From patent US5082843A, “Pyrazinyl and pyridazinyl ethers” (John Wyeth and Brother Limited, priority 1987, dated 1992)

Key:
[1] = molecular target: T1, 5-HT3 receptors (Oryctolagus cuniculus, UniProt A0A5F9C9J3); test: 5-HT3 antagonistic activity in the isolated right atrium of the rabbit heart; conditions: antagonism of 5-HT evoked increase in spontaneous rate of beating, read-out: apparent pKB (converted)
T1 construct: 5-HT3 receptors present on sympathetic nerve terminals in the heart; from tissue; host or cells: isolated right atrium of the rabbit heart (sympathetic nerve terminals)
T1 sequence (A0A5F9C9J3 1-494): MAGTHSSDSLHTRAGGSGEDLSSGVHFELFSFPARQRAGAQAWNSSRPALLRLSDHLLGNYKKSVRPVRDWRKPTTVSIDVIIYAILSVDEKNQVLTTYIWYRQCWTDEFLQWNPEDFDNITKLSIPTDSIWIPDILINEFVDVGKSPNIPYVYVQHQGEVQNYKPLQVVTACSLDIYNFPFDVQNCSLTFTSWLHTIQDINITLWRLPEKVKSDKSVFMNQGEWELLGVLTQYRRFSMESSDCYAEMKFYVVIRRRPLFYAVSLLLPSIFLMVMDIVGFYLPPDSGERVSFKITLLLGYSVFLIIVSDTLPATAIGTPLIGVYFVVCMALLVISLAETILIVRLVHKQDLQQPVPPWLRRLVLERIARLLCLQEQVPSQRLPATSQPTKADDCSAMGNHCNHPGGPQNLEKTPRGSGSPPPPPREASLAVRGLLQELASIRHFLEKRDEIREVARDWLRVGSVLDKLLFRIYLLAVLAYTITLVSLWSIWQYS
Procedure: The compounds of the invention are also tested for 5-HT3 antagonistic activity in the isolated right atrium of the rabbit heart based upon the method of Fozard J. R., Naunyn-Schmiedeberg's Arch. Pharmacol., 1984, 326, 36-44. This procedure relies upon the ability of 5-HT to stimulate 5-HT3 receptors present on sympathetic nerve terminals in the heart, causing release of noradrenaline which evokes an increase in the spontaneous rate of beating. The antagonist potency is expressed in a similar manner to that of the preceding test method i.e. as an apparent pKB.

[2] = molecular target: T2, 5-HT3 receptors (Rattus norvegicus, UniProt P35563); test: 5-HT3 receptor antagonism in the isolated vagus nerve of the rat (5-HT induced depolarization); conditions: isolated rat cervical vagus nerve; antagonism of 5-HT induced depolarization; from 5-HT concentration ratios; read-out: apparent pKB (converted)
T2 construct: isolated vagus nerve of the rat; from tissue; host or cells: isolated (cervical) vagus nerve of the rat
T2 sequence (P35563 24-483): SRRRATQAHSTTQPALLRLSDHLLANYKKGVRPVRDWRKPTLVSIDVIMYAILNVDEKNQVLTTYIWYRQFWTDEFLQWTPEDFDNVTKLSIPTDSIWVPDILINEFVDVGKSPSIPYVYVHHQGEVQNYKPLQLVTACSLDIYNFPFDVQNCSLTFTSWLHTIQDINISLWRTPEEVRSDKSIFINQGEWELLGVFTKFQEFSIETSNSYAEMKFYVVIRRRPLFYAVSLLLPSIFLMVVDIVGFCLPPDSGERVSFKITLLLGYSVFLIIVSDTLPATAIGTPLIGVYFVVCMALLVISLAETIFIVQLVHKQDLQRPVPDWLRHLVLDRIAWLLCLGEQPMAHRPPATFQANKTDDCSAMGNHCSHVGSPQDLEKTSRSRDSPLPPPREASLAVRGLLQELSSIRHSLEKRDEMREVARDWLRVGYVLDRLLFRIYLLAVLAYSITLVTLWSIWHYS
Procedure: The compound of the invention are tested for 5-HT3 receptor antagonism in the isolated vagus nerve of the rat by a method based upon that of Ireland S. J. and Tyers M. B., Brit. J. Pharmacol., 1987, 90, 229-238. The procedure relies upon the ability of 5-HT to induce depolarization of neurones in the cervical vagus nerve by a direct action on 5-HT3 receptors. A concentration-response curve to 5-HT induced depolarization is obtained and the antagonists are added to the bath containing the isolated nerve before repeating the 5-HT concentration-response curve. Antagonist potency is estimated for the 5-HT concentration ratios and expressed as an apparent pKB value (where KB is the antagonist dissociation constant).

CN1[C@@H]2CC[C@H]1C[C@@H](Oc1ccc3ccccc3n1)C2 [Example 2, Endo-8-methyl-3-(2-quinolyloxy)-8-aza-bicyclo[3.2.1]octane]
Kb [1]: 0.00251 µM | Kb [2]: 0.0316 µM
